From ChEMBL document CHEMBL1140267, “Synthesis and pharmacological evaluation of substituted 5-[4-[2-(6,7-dimethyl-1,2,3,4-tetrahydro-2-oxo-4-quinoxalinyl)ethoxy]phenyl]methylene]thiazolidine-2,4-dione derivatives as potent euglycemic and hypolipidemic agents” (Bioorg Med Chem Lett, 2005)

Tests used:
Type in all cases: ADME, organism-based
Settings in all cases: in vivo
[1] = Percent decrease in plasma glucose level of wistar rat was determined at 3 mg/kg dosage of the compound; parameters: dose 3 mg/kg
[2] = Percent decrease in triglyceride level of wistar rat was determined at 100 mg/kg dosage of the compound; parameters: dose 100 mg/kg
[3] = Percent decrease in plasma glucose level of wistar rat was determined at 10 mg/kg dosage of the compound; parameters: dose 10 mg/kg
[4] = Percent decrease in plasma glucose level of wistar rat was determined at 30 mg/kg dosage of the compound; parameters: dose 30 mg/kg
[5] = Percent decrease in plasma glucose level of wistar rat was determined at 100 mg/kg dosage of the compound; parameters: dose 100 mg/kg
[6] = Percent decrease in triglyceride level of wistar rat was determined at 3 mg/kg dosage of the compound; parameters: dose 3 mg/kg
[7] = Percent decrease in triglyceride level of wistar rat was determined at 10 mg/kg dosage of the compound; parameters: dose 10 mg/kg
[8] = Percent decrease in triglyceride level of wistar rat was determined at 30 mg/kg dosage of the compound; parameters: dose 30 mg/kg

Compound	Decrease [1] [%]	Decrease [2] [%]	Decrease [3] [%]	Decrease [4] [%]	Decrease [5] [%]	Decrease [6] [%]	Decrease [7] [%]	Decrease [8] [%]
Cc1cc2c(cc1C)N(CCCOc1ccc(/C=C3/SC(=O)NC3=O)cc1)C(c1ccccc1)C(=O)N2 (stereo unspecified)	18.68	22.89	19.25	26.42	38.96	10.46	10.66	14.73
Cc1cc2c(cc1C)N(CCCOc1ccc(/C=C3/SC(=O)NC3=O)cc1)CC(=O)N2	47.65	50.1	49.11	64.76	72.33	30.36	38.13	47.35
Cc1cc2c(cc1C)N(CCOc1ccc(/C=C3/SC(=O)NC3=O)cc1)C(c1ccccc1)C(=O)N2 (stereo unspecified)	25.24	29.73	21.69	40.26	53.96	16.87	20.36	22.46
Cc1cc2c(cc1C)N(CCOc1ccc(/C=C3/SC(=O)NC3=O)cc1)CC(=O)N2	50.12	54.95	52.63	69.47	81.25	49.63	44.2	49.12

Results, then the compound that gave them:

Decrease [1] [%]	Decrease [2] [%]	Decrease [3] [%]	Decrease [4] [%]	Decrease [5] [%]	Decrease [6] [%]	Decrease [7] [%]	Decrease [8] [%]	Compound
41.6	46	47.25	65	75.5	47	35.25	41	CN(CCOc1ccc(CC2SC(=O)NC2=O)cc1)c1ccccn1 (stereo unspecified) [ROSIGLITAZONE]
43.16	43.42	42.17	58.48	69.72	23.46	32.62	40	Cc1cc2c(cc1C)N(CCOc1ccc(/C=C3/SC(=O)NC3=O)cc1)C(C)C(=O)N2 (stereo unspecified)
35.73	37.46	39.21	49.62	64.26	21.73	29.69	28.82	Cc1cc2c(cc1C)N(CCCOc1ccc(/C=C3/SC(=O)NC3=O)cc1)C(C)C(=O)N2 (stereo unspecified)
